Results on 21 compounds are retold here after US8163909B2, “Substituted hydroxyethyl amine compounds as beta-secretase modulators and methods of use” (Amgen Inc., priority 2007, dated 2012).

For data set [1], the target named is Beta Secretase enzyme (BACE) (Homo sapiens, UniProt P56817). The data set can be described thus: In vitro enzymatic BACE FRET (fluorescence resonance energy transfer) assay.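 Note: fluorescence read after 1 h with 50 nM quenched peptide substrate spanning the BACE cleavage site, in pH 4.2 acetate buffer containing 10% DMSO and nonionic detergent.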 It counts as biochemical. Conditions: BACE enzyme assay, IC50's in uM; read-out: BACE1 FRET assay.
Data set [2] relates to Aβ40 in conditioned medium of cells stably expressing Amyloid Precursor Protein (APP). The data set can be described thus: In vitro BACE cell-based assay (Aβ40 in conditioned medium, sandwich ELISA).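 Note: compounds added as a dilution series, secreted peptide quantified by europium time-resolved fluorescence readout, potency fitted from percent of control versus compound concentration.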 Conditions: Homo sapiens, HEK293, HEK cell-based assay, IC50's in uM; read-out: HEK cell assay. Background: ELISA stands for enzyme-linked immunosorbent assay.
Data set [3] addresses CYP3A4 (CYP3A) (Homo sapiens, UniProt P08684). The data set is described as follows: in vitro. Conditions: microsomes, pH 7.4.
Data set [4] is described as follows: Microsomal stability assay, rat liver microsomes.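 Note: rat liver microsomes (0.25 mg/mL) with about 1 µM compound plus 1 mM NADPH, pH 7.4, 37 °C for 30 min, parent left measured by LC-MS/MS against 0 min.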 Conditions: rat liver microsomal data. In general terms: Microsomes from liver hold many membrane-bound enzymes, among them those of drug oxidation.
Data set [5] in a line: Microsomal stability assay, human liver microsomes.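 Note: pooled human liver microsomes at 0.25 mg/mL with 1 µM compound and NADPH at 37 °C, pH 7.4, for 30 min, unchanged parent quantified by LC-MS/MS against the 0 min sample.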 Conditions: human liver microsomal data.
Data set [6] addresses CYP2D6 (Homo sapiens, UniProt P10635). The data set can be described thus: CYP2D6 inhibition assay (bufuralol, pooled human liver microsomes).
Where [7] appears, read: 2D6 IC50 (uM), CYP enzyme inhibition.

SMILES strings stand for the structures. Read-outs that look alike come from different tables or passages of the source. A value given as a limit tells only on which side of the number the result lay.

CYP3A4 (CYP3A), sequence (P08684 2-503): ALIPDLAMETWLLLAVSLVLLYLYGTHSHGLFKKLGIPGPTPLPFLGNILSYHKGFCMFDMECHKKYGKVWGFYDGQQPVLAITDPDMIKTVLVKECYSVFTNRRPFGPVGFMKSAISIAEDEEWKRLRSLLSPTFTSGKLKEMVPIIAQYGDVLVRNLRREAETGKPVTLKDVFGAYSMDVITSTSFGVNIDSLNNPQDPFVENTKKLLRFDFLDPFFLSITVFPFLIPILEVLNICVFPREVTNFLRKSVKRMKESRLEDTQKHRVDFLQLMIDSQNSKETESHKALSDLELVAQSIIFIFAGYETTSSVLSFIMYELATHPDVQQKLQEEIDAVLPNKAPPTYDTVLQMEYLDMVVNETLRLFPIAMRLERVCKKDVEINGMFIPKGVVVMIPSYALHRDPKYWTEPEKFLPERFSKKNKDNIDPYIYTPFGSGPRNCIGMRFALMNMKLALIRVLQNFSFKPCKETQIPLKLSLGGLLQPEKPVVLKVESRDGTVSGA
CYP2D6, sequence (P10635 whole entry): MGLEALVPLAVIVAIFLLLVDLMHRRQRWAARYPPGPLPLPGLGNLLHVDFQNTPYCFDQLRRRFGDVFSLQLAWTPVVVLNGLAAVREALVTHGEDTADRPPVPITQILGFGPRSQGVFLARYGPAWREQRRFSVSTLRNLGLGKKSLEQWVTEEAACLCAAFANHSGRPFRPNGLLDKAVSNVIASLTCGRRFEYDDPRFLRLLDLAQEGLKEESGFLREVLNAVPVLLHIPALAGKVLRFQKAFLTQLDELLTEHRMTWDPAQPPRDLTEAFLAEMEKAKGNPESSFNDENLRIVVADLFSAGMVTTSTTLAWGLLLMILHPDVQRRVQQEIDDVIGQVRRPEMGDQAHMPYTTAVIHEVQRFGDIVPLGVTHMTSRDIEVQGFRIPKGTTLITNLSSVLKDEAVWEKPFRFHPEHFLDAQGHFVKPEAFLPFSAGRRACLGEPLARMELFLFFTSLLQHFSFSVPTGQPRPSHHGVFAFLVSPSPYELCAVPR
Beta Secretase enzyme (BACE), sequence (P56817 46-501): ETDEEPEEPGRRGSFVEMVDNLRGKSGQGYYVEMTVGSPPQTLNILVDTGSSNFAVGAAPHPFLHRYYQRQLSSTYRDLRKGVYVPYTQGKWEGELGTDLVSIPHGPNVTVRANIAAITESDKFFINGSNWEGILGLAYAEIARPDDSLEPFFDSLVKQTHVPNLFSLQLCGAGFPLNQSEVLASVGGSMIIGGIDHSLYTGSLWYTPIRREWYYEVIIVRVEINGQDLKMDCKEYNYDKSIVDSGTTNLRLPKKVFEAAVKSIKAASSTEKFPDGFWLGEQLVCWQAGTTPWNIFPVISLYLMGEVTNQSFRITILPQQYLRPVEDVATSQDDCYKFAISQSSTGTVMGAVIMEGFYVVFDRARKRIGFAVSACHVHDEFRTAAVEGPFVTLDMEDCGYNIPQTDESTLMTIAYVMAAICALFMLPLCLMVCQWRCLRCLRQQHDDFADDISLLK

For the compound `CO[C@H](C)C(=O)N[C@@H](Cc1cc(F)cc(-c2nccs2)c1)[C@H](O)CNC1CC2(CCC2)Oc2ncc(CC(C)(F)F)cc21` (stereo partly drawn) [compound 765, (2R)-N-((1S,2R)-3-((6′-(2,2-difluoropropyl)-3′,4′-dihydrospiro[cyclobutane-1,2′-pyrano[2,3-b]pyridin]-4′-yl)amino)-1-(3-fluoro-5-(1,3-thiazol-2-yl)benzyl)-2-hydroxypropyl)-2-methoxypropanamide], the IC50 in data set [1] was 0.021 µM; in data set [2] it was 0.054 µM; in data set [3], 0.2 µM; in data set [6] (setting [7]), 0.7 µM. Further, the “RLM” value in data set [4] amounted to 39 µL/min/mg. Further, in data set [5], the “HLM” value was found to be 35 µL/min/mg.
Regarding `C#Cc1cnc2c(c1)[C@@H](NC[C@@H](O)[C@H](Cc1cc(F)cc(-c3nccs3)c1)NC(=O)COC)CC1(CCC1)O2` [compound 766], the IC50 in data set [1] is 0.055 µM; in data set [2], 0.272 µM; in data set [3], 0.2 µM; in data set [6] (setting [7]) it was 1.4 µM. In addition, in data set [4], the “RLM” value was found to be 64 µL/min/mg. In addition, in data set [5], the “HLM” value was found to be 70 µL/min/mg.
In the case of `COCC(=O)N[C@@H](Cc1ccc2c(c1)OCO2)[C@H](O)CN[C@H]1CC2(CCC2)Oc2c(-c3ccccn3)cc(CC(C)C)cc21` [compound 767], the IC50 is 0.198 µM in data set [1], 0.251 µM in data set [2], 0.1 µM in data set [3] and 3.6 µM in data set [6] (setting [7]). The “RLM” value in data set [4] is 150 µL/min/mg. Further, in data set [5], the “HLM” value is 157 µL/min/mg.
Regarding `CO[C@H](C)C(=O)N[C@@H](Cc1ccc(F)c(-c2nccs2)c1)[C@H](O)CN[C@H]1CC2(CCC2)Oc2ncc(CC(C)C)cc21` [compound 768, (2R)-N-((1S,2R)-1-(4-fluoro-3-(1,3-thiazol-2-yl)benzyl)-2-hydroxy-3-(((4′S)-6′-(2-methylpropyl)-3′,4′-dihydrospiro[cyclobutane-1,2′-pyrano[2,3-b]pyridin]-4′-yl)amino)propyl)-2-methoxypropanamide], the IC50 in data set [1] came to 0.022 µM; in data set [2], 0.105 µM; in data set [3], 0.1 µM; in data set [6] (setting [7]) it was 0.4 µM. The “RLM” value in data set [4] turned out to be 70 µL/min/mg. Also, in data set [5], the “HLM” value amounted to 39 µL/min/mg.
Take `CC(C)(C)Cc1cnc2c(c1)[C@@H](NC[C@@H](O)[C@H](Cc1ccc(F)cc1)NC(=O)[C@@H]1CN(Cc3nccs3)CCO1)CC1(CCC1)O2` [compound 769]: the IC50 in data set [1] is 0.01 µM; in data set [2], 0.013 µM; in data set [3], 0.4 µM; in data set [6] (setting [7]) it was 5.2 µM. Besides, in data set [4], the “RLM” value turned out to be 333 µL/min/mg. The “HLM” value in data set [5] worked out at 706 µL/min/mg.
`CO[C@H](C)C(=O)N[C@@H](Cc1cc(F)cc(-c2nccs2)c1)[C@H](O)CN[C@H]1CC2(CCC2)Oc2ccc(CC(C)C)cc21` [compound 770]: the IC50 in data set [1] was 0.01 µM; in data set [2], 0.052 µM; in data set [3] it was 0.3 µM; in data set [6] (setting [7]) it was 0.5 µM. Besides, the “RLM” value in data set [4] came to 201 µL/min/mg. For the same compound, the “HLM” value in data set [5] amounted to 145 µL/min/mg.
As to `COCC(=O)N[C@@H](Cc1cc(F)cc(-c2nccs2)c1)[C@H](O)CN[C@H]1CC2(CCC2)Oc2ccc(CC(C)C)cc21` [compound 771, N-((1S,2R)-1-(3-fluoro-5-(1,3-thiazol-2-yl)benzyl)-2-hydroxy-3-(((4S)-6-(2-methylpropyl)-3,4-dihydrospiro[chromene-2,1′-cyclobutan]-4-yl)amino)propyl)-2-methoxyacetamide], the IC50 in data set [1] came out at 0.005 µM; in data set [2], 0.04 µM; in data set [3], 0.7 µM; in data set [6] (setting [7]), 0.5 µM. The “RLM” value in data set [4] was found to be 201 µL/min/mg. Also, the “HLM” value in data set [5] is 150 µL/min/mg.
For `CC(C)(C)Cc1cnc2c(c1)[C@@H](NC[C@@H](O)[C@H](Cc1ccc(F)cc1)NC(=O)[C@H]1CN(Cc3cscn3)CCO1)CC1(CCC1)O2` [compound 774], the IC50 was found to be 0.017 µM in data set [1], 0.006 µM in data set [2], 0.2 µM in data set [3] and 5.3 µM in data set [6] (setting [7]). The “RLM” value in data set [4] came out at 57 µL/min/mg. Moreover, in data set [5], the “HLM” value turned out to be 111 µL/min/mg.
Take `CC(C)(C)Cc1cnc2c(c1)[C@@H](NC[C@@H](O)[C@H](Cc1ccc3c(c1)OCO3)NC(=O)CC1CCS(=O)(=O)C1)CC1(CCC1)O2` (stereo partly drawn) [compound 778]: the IC50 in data set [1] was 0.048 µM; in data set [2] it was 0.05 µM; in data set [3] it was 0.1 µM; in data set [6] (setting [7]), 8.5 µM. Further, the “RLM” value in data set [4] came to 141 µL/min/mg. Moreover, the “HLM” value in data set [5] came out at 62 µL/min/mg.
Turning to `CC(C)(C)Cc1cnc2c(c1)[C@@H](NC[C@@H](O)[C@H](Cc1ccc3c(c1)OCO3)NC(=O)C1CCS(=O)(=O)C1)CC1(CCC1)O2` (stereo partly drawn) [compound 779], the IC50 in data set [1] was 0.057 µM; in data set [2], 0.075 µM; in data set [3], 0.1 µM; in data set [6] (setting [7]), 3.9 µM. Moreover, the “RLM” value in data set [4] was 66 µL/min/mg. Moreover, the “HLM” value in data set [5] was 36 µL/min/mg.
For the compound `C#Cc1cc(C[C@H](NC(=O)COC)[C@H](O)CN[C@H]2CC3(CCC3)Oc3ncc(CC(C)C)cc32)ccc1F` [compound 780, N-((1S,2R)-1-(3-ethynyl-4-fluorobenzyl)-2-hydroxy-3-(((4′S)-6′-(2-methylpropyl)-3′,4′-dihydrospiro[cyclobutane-1,2′-pyrano[2,3-b]pyridin]-4′-yl)amino)propyl)-2-methoxyacetamide], the IC50 in data set [1] turned out to be 0.01 µM; in data set [2], 0.032 µM; in data set [3] it was 0.1 µM; in data set [6], 1.4 µM. Besides, the “RLM” value in data set [4] was found to be 74 µL/min/mg. In addition, the “HLM” value in data set [5] amounted to 61 µL/min/mg.
Regarding `CO[C@H](C)C(=O)N[C@@H](Cc1cncs1)[C@H](O)CN[C@H]1CC2(CCC2)Oc2c1cc(CC(C)(C)C)nc2-c1ccccn1` [compound 781], the IC50 was 0.071 µM in data set [1], 0.206 µM in data set [2], 0.4 µM in data set [3] and no less than 27 µM in data set [6] (setting [7]). Moreover, the “RLM” value in data set [4] came out at 82 µL/min/mg. Moreover, the “HLM” value in data set [5] was 104 µL/min/mg.
Turning to `COCC(=O)N[C@@H](Cc1cc(F)cc(F)c1)[C@H](O)CN[C@H]1CC2(CCC2)Oc2c(-c3ccncc3)cc(C3CC3)cc21` [compound 783], the IC50 in data set [1] came to 0.031 µM; in data set [2] it was 0.029 µM; in data set [3], 0.3 µM; in data set [6] (setting [7]), 0.3 µM. Also, the “RLM” value in data set [4] turned out to be 107 µL/min/mg. Also, the “HLM” value in data set [5] was determined as 73 µL/min/mg.
As for `C#Cc1cnc2c(c1)[C@@H](NC[C@@H](O)[C@H](Cc1cc(F)cc(-c3nccs3)c1)NC(=O)[C@@H](C)OC)CC1(CCC1)O2` [compound 784], the IC50 was 0.158 µM in data set [1], 0.864 µM in data set [2], no more than 0.03 µM in data set [3] and 1 µM in data set [6] (setting [7]). The “RLM” value in data set [4] turned out to be 64 µL/min/mg. For the same compound, the “HLM” value in data set [5] was 51 µL/min/mg.
With `CC(C)(C)Cc1cnc2c(c1)[C@@H](NC[C@@H](O)[C@H](Cc1ccc(F)cc1)NC(=O)[C@@H]1CN(Cc3cscn3)CCO1)CC1(CCC1)O2` [compound 786], the IC50 in data set [1] came to 0.047 µM; in data set [2], 0.029 µM; in data set [3] it was 0.3 µM; in data set [6] (setting [7]) it was 7.9 µM. In addition, the “RLM” value in data set [4] came to 129 µL/min/mg. Further, the “HLM” value in data set [5] came out at 169 µL/min/mg.
For the compound `COCC(=O)N[C@@H](Cc1ccc(-c2nccs2)c(F)c1)[C@H](O)CN[C@H]1CC2(CCC2)Oc2ncc(CC(C)C)cc21` [compound 787], the IC50 came out at 0.11 µM in data set [1], 0.451 µM in data set [2], 0.2 µM in data set [3] and 0.8 µM in data set [6] (setting [7]). In addition, the “RLM” value in data set [4] was 79 µL/min/mg. The “HLM” value in data set [5] was determined as 58 µL/min/mg.
On to `COCCC(=O)N[C@@H](Cc1cccc(-c2nccs2)c1)[C@H](O)CN[C@H]1CC2(CCC2)Oc2ncc(CC(C)(C)C)cc21` [compound 791], for which the IC50 is 0.009 µM in data set [1], 0.012 µM in data set [2], 0.1 µM in data set [3] and 0.6 µM in data set [6] (setting [7]). The “RLM” value in data set [4] worked out at 33 µL/min/mg. In data set [5], the “HLM” value was found to be 43 µL/min/mg.
`CC(=S)N[C@@H](Cc1cccc(-c2nccs2)c1)[C@H](O)CN[C@H]1CC2(CCC2)Oc2ncc(CC(C)(C)C)cc21` [compound 793]: the IC50 came to 0.03 µM in data set [1], 0.067 µM in data set [2], 0.1 µM in data set [3] and 0.4 µM in data set [6] (setting [7]). Also, the “RLM” value in data set [4] is 60 µL/min/mg. For the same compound, in data set [5], the “HLM” value worked out at 99 µL/min/mg.
`CO[C@H](C)C(=O)N[C@@H](Cc1cncs1)[C@H](O)CN[C@H]1CC2(CCC2)Oc2ncc([C@@H]3CC3(C)C)cc21` [compound 794]: the IC50 turned out to be 0.005 µM in data set [1], 0.009 µM in data set [2], 0.5 µM in data set [3] and 9.8 µM in data set [6] (setting [7]). The “RLM” value in data set [4] turned out to be 132 µL/min/mg. Also, in data set [5], the “HLM” value stood at 205 µL/min/mg.
On to `CC(C)Cc1cnc2c(c1)[C@@H](NC[C@H](O)[C@@H](Cc1cccc(-c3nccs3)c1)NC(=O)[C@H]1CCCO1)CC1(CCC1)O2` [compound 795], for which the IC50 in data set [1] worked out at 0.286 µM; in data set [2], 0.206 µM; in data set [3], 0.2 µM; in data set [6] (setting [7]), 0.6 µM. Further, the “RLM” value in data set [4] was 64 µL/min/mg. Also, in data set [5], the “HLM” value amounted to 127 µL/min/mg.
Turning to `COC(OC)C(=O)N[C@@H](Cc1cccc(F)c1)[C@H](O)CN[C@H]1CC2(CCC2)Oc2ncc(CC(C)(F)F)cc21` [compound 797], the IC50 in data set [1] was 0.008 µM; in data set [2], 0.017 µM; in data set [3], 1.4 µM; in data set [6] (setting [7]) it was 4.1 µM. The “RLM” value in data set [4] was 199 µL/min/mg. Further, the “HLM” value in data set [5] came to 256 µL/min/mg.
